PubChem BioAssay (NCI)
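Each compound was tested at five concentrations against cells in 96-well plates for 48 hours. TGI: concentration producing complete growth inhibition.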

Tests used:
Assay in all cases: inhibition of tumour cell growth, NCI panel, 48 h
DLD-1 colon = test system: DLD-1 colon
COLO 205 colon = test system: COLO 205 colon
LOX IMVI melanoma = test system: LOX IMVI melanoma
CCRF-CEM leukemia = test system: CCRF-CEM leukemia
SK-MEL-5 melanoma = test system: SK-MEL-5 melanoma
OVCAR-5 ovarian = test system: OVCAR-5 ovarian
IGROV1 ovarian = test system: IGROV1 ovarian
HCT-15 colon = test system: HCT-15 colon
ACHN renal = test system: ACHN renal
KM20L2 colon = test system: KM20L2 colon
SF-295 CNS = test system: SF-295 CNS
SK-MEL-2 melanoma = test system: SK-MEL-2 melanoma
HCT-116 colon = test system: HCT-116 colon
SN12C renal = test system: SN12C renal
NCI-H522 lung = test system: NCI-H522 lung
SW-620 colon = test system: SW-620 colon
UACC-257 melanoma = test system: UACC-257 melanoma
EKVX NSCLC = test system: EKVX NSCLC
M19-MEL melanoma = test system: M19-MEL melanoma
HT29 colon = test system: HT29 colon
HCC-2998 colon = test system: HCC-2998 colon
HOP-62 NSCLC = test system: HOP-62 NSCLC
TK-10 renal = test system: TK-10 renal
M14 melanoma = test system: M14 melanoma
HL-60(TB) leukemia = test system: HL-60(TB) leukemia
MALME-3M melanoma = test system: MALME-3M melanoma
K-562 leukemia = test system: K-562 leukemia
DMS 114 small cell lung = test system: DMS 114 small cell lung
SNB-19 CNS = test system: SNB-19 CNS
A498 renal = test system: A498 renal
U251 CNS = test system: U251 CNS
OVCAR-4 ovarian = test system: OVCAR-4 ovarian
SNB-78 CNS = test system: SNB-78 CNS
SF-268 CNS = test system: SF-268 CNS
KM12 colon = test system: KM12 colon
MOLT-4 leukemia = test system: MOLT-4 leukemia
OVCAR-3 ovarian = test system: OVCAR-3 ovarian
UACC-62 melanoma = test system: UACC-62 melanoma
UO-31 renal = test system: UO-31 renal
NCI-H226 lung = test system: NCI-H226 lung
NCI-H23 lung = test system: NCI-H23 lung
SK-OV-3 ovarian = test system: SK-OV-3 ovarian
XF 498 CNS = test system: XF 498 CNS
RXF 393 renal = test system: RXF 393 renal
SK-MEL-28 melanoma = test system: SK-MEL-28 melanoma
RPMI-8226 leukemia = test system: RPMI-8226 leukemia
HOP-18 NSCLC = test system: HOP-18 NSCLC
SF-539 CNS = test system: SF-539 CNS
LXFL 529 NSCLC = test system: LXFL 529 NSCLC
A549 NSCLC = test system: A549 NSCLC
SNB-75 CNS = test system: SNB-75 CNS
OVCAR-8 ovarian = test system: OVCAR-8 ovarian
HOP-92 NSCLC = test system: HOP-92 NSCLC
NCI-H460 lung = test system: NCI-H460 lung
786-0 renal = test system: 786-0 renal
CAKI-1 renal = test system: CAKI-1 renal
SR leukemia = test system: SR leukemia
RXF-631 renal = test system: RXF-631 renal
DMS 273 small cell lung = test system: DMS 273 small cell lung

Measured: TGI

CC1=NN2C(c3ccc(C)cc3)=CSC2=NC(C)(C)C1
not listed: CAKI-1 renal | SR leukemia | RXF-631 renal | DMS 273 small cell lung
> 100 µM: all other assays above

C[C@]12CCC[C@H](O)[C@H]1C[C@H](CO)CC2
not listed: SK-MEL-5 melanoma | EKVX NSCLC | DMS 114 small cell lung | SNB-78 CNS | RXF 393 renal
> 100 µM: all other assays above
